Results published in patent US9128046B2, “Slide holder assembly for comet assay” (Cellomics, Inc., priority 2011, dated 2015).

Experiments:
[1] = tested on: CHO-K1 cells; assay: comet assay on CHO-K1 cells in slide holder assembly; assay type: cell-based; conditions: CHO-K1 cells treated with 100 μM for one hour; imaged with ToxInsight IVT platform
Experimental: Exemplary comet assays were performed using the above devices and methods. For example, in one comet assay, comets were successfully generated and analyzed using CHO-K1 cells on a 96-well glass slide. To ensure that comets would be produced, half of the CHO-K1 cells were treated with 100 μM 9-aminoacridine for one hour. A 96-well glass slide was secured within a slide holder assembly and half of the slide was layered with the treated CHO-K1 cells while the other half was layered with untreated CHO-K1 cells. The cells were allowed to soak in a lysis solution and then an electrophoresis buffer while in the slide holder assembly. The cells were then electrophoresed while in the slide holder assembly and then imaged using the ToxInsight IVT platform.
In FIG. 11, the untreated CHO-K1 cells 342 are shown in columns 1-6 (i.e., the left half of the image) and the treated CHO-K1 cells 344 are shown in columns 7-12 (i.e., on the right half). […] In the sample comet assay, the ToxInsight® IVT Platform was used as the cell imaging system to scan 25 fields/well. Using the Comet.V4 BioApplication software developed by Cellomics Inc., 14,075 comets were automatically selected by the cell imaging system within a time period of 20 minutes, 29 seconds. […] This translates to over one million comets that could be analyzed per 24-hour day.

[2] = tested on: CHO-K1 cells; assay: comet assay of DNA repair over varied durations of time; assay type: cell-based; conditions: treated CHO-K1 cells layered onto wells for varied durations of time; FIG. 12
Experimental: In another sample comet assay, CHO-K1 cells were treated with 9-aminoacridine and the treated cells were layered onto select wells on the glass slide for varied durations of time. The cells were allowed to soak in a lysis solution and then an electrophoresis buffer while in the slide holder assembly. The cells were then electrophoresed while in the slide holder assembly and then imaged using the ToxInsight IVT Platform.

DNA repair quantified in comets [2]: time-dependent response of DNA repair
Compound: Nc1c2ccccc2nc2ccccc12 [9-aminoacridine]
comet formation (DNA damage) [1]: comets were formed and imaged on the treated cells
